Assay results published in US9918972B2, “Treatment of leukemia with artemisinin derivatives and combinations with other antineoplastic agents” (UNIVERSITY OF MARYLAND, BALTIMORE, priority 2014, dated 2018).

Columns and labels:
[1] = test system: MOLM14 cells; experiment: Apoptosis (APC Annexin-V / 7-AAD, FACS); assay type: cell-based, human; conditions: MOLM14, ABT-199 plus AS or ART-838, 24 hrs
Procedure: FIG. 13. […] MOLM14 cells were treated with ABT-199 and/or AS (upper panel) or ART-838 (lower panel) for 24 hrs. Cells were stained with APC Annexin-V and 7-AAD and analyzed by fluorescence-activated cell sorting (FACS) to assess apoptotic cells. The early apoptotic population was defined as APC Annexin-V (+) and 7-AAD (−). The total apoptotic population was defined as APC Annexin-V (+). Each experiment was performed in triplicate. […].
Drug or vehicle-treated cells (1-5×10^5/sample) were washed with cold PBS, resuspended in Annexin-V binding buffer, co-stained with 5 μl each of APC Annexin-V and 7-AAD viability dye (all from BioLegend, San Diego, Calif.), and incubated for 15 minutes at room temperature in the dark then stored on ice until analysis (<30 minutes). Stained cells were analyzed using the FL3 and FL4 channels of an Accuri C6 flow cytometer. ˜10,000 non-debris cellular events were collected per sample and analyzed, as for cell cycle. The Annexin-V^−/7-AAD^− population was designated “viable,” the Annexin-V^+/7-AAD^− population was designated “early apoptotic,” and the Annexin-V^+/7-AAD^+ population was designated “dying/dead” [47].

[2] = test system: KOPN8; experiment: Kinase inhibitor drug combination screen (MTS, Bliss-independence analysis)
Description: (§2) Hits were ranked by the observed inhibition over the Bliss independence prediction.
(§3) Combinations with positive values for this Bliss difference were considered synergistic, values near zero, additive, and negative values, antagonistic.

[3] = test system: MOLM14; experiment: as above
[4] = test system: MOLM14 cells; experiment: Combinations of AS, ART-838 or DHA with BCL-2 inhibitors, alamarBlue, 48 h; assay type: cell-based, human
Procedure: FIGS. 11A-11C. Antileukemic efficacy of ABT-199, ABT-263 or ABT-737 combined with AS or ART-838. […] Each experiment was performed in triplicate.
FIG. 12. […] MOLM14 cells were treated with increasing concentrations of ABT-199, ABT-263 or ABT-737 without or with DHA (500 nM and 1 μM) for 48hrs. Then cytotoxicity was evaluated by alamarBlue assays. Each experiment was performed in triplicate.
(§1) MOLM14 or KOPN8 cells were seeded in 96-well plates as described above for alamarBlue assays. Cells were treated with a certain concentrations of AS, or ART-838 or DHA, in combination with a range of concentrations of ABT-199 or ABT-263 or ABT-737. AlamarBlue assays were performed as described above. Each set of drugs or drug combinations was tested in triplicate. Chou-Talalay drug combination analysis was performed as above.

[5] = test system: MOLM14 and KOPN8 cells; experiment: Validation of ABT-199/ABT-737 + AS/ART-838 combinations, alamarBlue, Chou-Talalay; assay type: cell-based, human; conditions: MOLM14 and KOPN8, AS or ART-838 at IC50, 48 h
Procedure: FIGS. 10A-10B. Validation of cytotoxicity of ABT-199/ABT-737+AS/ART-838 combinations by alamarBlue assay. […] Each experiment was performed in triplicate. All data points between 0.1-99.9% growth inhibition were analyzed using the methods of Chou and Talalay and combination indices (CIs) calculated. CIs were graphed against the fractional effect (FE; the fraction of cells inhibited at each concentration). CI<1 indicates synergy, CI=1, additivity, CI>1, antagonism.
as §1
Cytotoxicity of the individual drugs and combinations was assessed using alamarBlue fluorescence, a more sensitive indicator of cell metabolism (as a surrogate for cell number) than MTS.
Drug combination interactions were assessed using the methods of Chou-Talalay, a more robust measure of synergy than the Bliss independence model. The Chou-Talalay method, however, can only be used at drug effect levels from 0.1-99.9%. […]

[6] = test system: MOLM14, Kasumi-1, KOPN8 and RCH-ACV leukemia cell lines; experiment: Kinase inhibitor drug combination screen, summary over the four leukemia cell lines; conditions: for No. Cell Lines: cell lines synergistically inhibited (>10% over Bliss) by drug 1 combined with AS and/or ART-838; for average inhibition over the Bliss prediction: plus ART-838, average over synergistic cell lines; for average inhibition over the Bliss independence prediction: average over synergistic cell lines; for synergy with AS or ART-838: screens in four human leukemia cell lines
Description: as §2, §3

[7] = test system: RCH-ACV; experiment: Kinase inhibitor drug combination screen (MTS, Bliss-independence analysis)
Description: as §2, §3

[8] = test system: Kasumi-1; experiment: as above; conditions: Kasumi-1, Drug 2 = ART-838 at approximate IC50, 48 h
Description: as §2, §3

[9] = test system: chemotherapy (doxorubicin, hydroxyurea, methotrexate, or vincristine)-resistant CEM (T-ALL) sub-lines; conditions: reference [27]; cited from earlier work
[10] = test system: MOLM14 cells; experiment: ROS - mitochondrial superoxide (MitoSOX flow cytometry); assay type: cell-based, human; conditions: MOLM14, drug alone, 2.25x IC50, 16 h
Procedure: FIGS. 4A-4D. […] CIs were computed as described above. CI<1 indicates synergy, CI=1, additivity, CI>1, antagonism. […] Cells were then loaded with 5 μM MitoSox for 30 min, washed, and analyzed by flow cytometry for MitoSox fluorescence (indicating mitochondrial superoxide) in the FL2 channel. […] Error bars represent the SEM of three independent experiments.

[11] = KOPN8, Drug 2 = ART-838 at approximate IC50, 48 h
[12] = KOPN8, Drug 2 = AS at approximate IC50, 48 h
[13] = MOLM14, Drug 2 = ART-838 at approximate IC50, 48 h
[14] = MOLM14, Drug 2 = AS at approximate IC50, 48 h
[15] = Drug 2 = ART-838 at approximate IC50, 48 h
[16] = Drug 2 = AS at approximate IC50, 48 h

CC1(C)CCC(CN2CCN(c3ccc(C(=O)NS(=O)(=O)c4ccc(NCC5CCOCC5)c([N+](=O)[O-])c4)c(Oc4cnc5[nH]ccc5c4)c3)CC2)=C(c2ccc(Cl)cc2)C1 [ABT-199]
induction of apoptosis [1]: cooperated to induce apoptosis
fractional inhibition over Bliss prediction [2, 11]: KOPN8 (0.11),
fractional inhibition over Bliss prediction [2, 12]: KOPN8 (0.15),
fractional inhibition over Bliss prediction [3, 13]: MOLM14 (0.18),
fractional inhibition over Bliss prediction [3, 14]: MOLM14 (0.20),
leukemia cell growth inhibition ([4]; MOLM14, 37 nM ABT-199 alone): did not inhibit
growth inhibition ([4]; MOLM14, 37 nM ABT-199 together with ART-838 25 nM): 100%
growth inhibition ([4]; MOLM14, 37 nM ABT-199 together with AS 825 nM): 100%
cytotoxic efficacy on addition of AS or ART-838 [5]: potently increased the efficacy
No. Cell Lines [6]: 3/4
cell lines in which combination was synergistic ([6]; plus ART-838): 3/4
average inhibition over the Bliss prediction [6]: 21%
cell lines in which combination was synergistic ([6]; plus AS): 3/4
average inhibition over the Bliss independence prediction ([6]; plus AS): 17%
synergy with AS or ART-838 [6]: Particularly strong synergy
fractional inhibition over Bliss prediction [7, 15]: RCH-ACV (0.35)
fractional inhibition over Bliss prediction [7, 16]: RCH-ACV (0.16)

CN(C)CC[C@H](CSc1ccccc1)Nc1ccc(S(=O)(=O)NC(=O)c2ccc(N3CCN(Cc4ccccc4-c4ccc(Cl)cc4)CC3)cc2)cc1[N+](=O)[O-] [ABT-737]
fractional inhibition over Bliss prediction [2, 11]: KOPN8 (0.28),
fractional inhibition over Bliss prediction [2, 12]: KOPN8 (0.25),
fractional inhibition over Bliss prediction [3, 13]: MOLM14 (0.34),
fractional inhibition over Bliss prediction [3, 14]: MOLM14 (0.50),
fractional inhibition over Bliss prediction [8]: Kasumi-1 (0.11),
cytotoxic efficacy on addition of AS or ART-838 [5]: potently increased the efficacy
No. Cell Lines [6]: 4/4
cell lines in which combination was synergistic ([6]; plus ART-838): 4/4
average inhibition over the Bliss prediction [6]: 24%
cell lines in which combination was synergistic ([6]; plus AS): 3/4
average inhibition over the Bliss independence prediction ([6]; plus AS): 33%
synergy with AS or ART-838 [6]: Particularly strong synergy
fractional inhibition over Bliss prediction [7, 15]: RCH-ACV (0.24)
fractional inhibition over Bliss prediction [7, 16]: RCH-ACV (0.23)

C[C@H]1[C@H](OC(=O)CCC(=O)O)O[C@@H]2O[C@@]3(C)CC[C@H]4[C@H](C)CC[C@@H]1[C@@]24OO3 [AS, artesunate]
efficacy against resistant sub-lines vs parental line [9]: as effective
mitochondrial superoxide (MitoSox MFI) [10]: increased
